In brackets after ≈: the same amount, converted by molar mass.
Tests used:
[1] = Metabolic stability in human liver S9 fraction; format: in vitro ADME; details: human liver S9, 1 μM compound; for microsomal CLint at 1 µM: read-out: MetStab Human Liver S9 Clint; for half-life at 1 µM: read-out: MetStab Human Liver S9 t1/2
Protocol: (§1) The next step was an in vitro ADMET profiling of the best seven compounds so far: 9, 11, 14, 19, 20, 21, and 27. The compounds were tested for their kinetic solubility (1% DMSO in PBS, pH 7.4), lipophilicity (chromatographic Log D7.4 value), cellular permeability (using Caco-2 cells), and metabolic stability (using mouse and human liver S9 fractions) (see Table 3). […]
(§2) 1.7 Metabolic Stability in Liver S9 Fractions
(§3) For the evaluation of combined phase I and phase II metabolic stability, the compound (1 μM) was incubated with 1 mg/mL pooled mouse liver S9 fraction (Xenotech, Kansas City, USA) or human liver S9 fraction (Corning, USA), 2 mM NADPH, 1 mM UDPGA, 10 mM MgCl 2, 5 mM GSH and 0.1 mM PAPS at 37 °C for 240 min. The metabolic stability of testosterone, verapamil and ketoconazole were determined in parallel to confirm the enzymatic activity of mouse S9 fractions, for human S9 testosterone, diclofenac and propranolol were used. The incubation was stopped after defined time points by precipitation of aliquots of S9 enzymes with 2 volumes of cold acetonitrile containing internal standard (150 nM diphenhydramine). Samples were stored on ice until the end of the incubation and precipitated protein was removed by centrifugation (15 min, 4 °C, 4,000 g). Concentration of the remaining test compound at the different time points was analyzed by HPLC-MS/MS (TSQ Quantum Access MAX, Thermo Fisher, Dreieich, Germany) and used to determine half -life (t1/2). Values are means of three

[2] = Metabolic stability in mouse liver S9 fraction; format: in vitro ADME; details: pooled liver S9 fraction, mouse liver S9, 1 μM compound; for microsomal CLint at 1 µM: read-out: MetStab Mouse Liver S9 Clint; for half-life at 1 µM: read-out: MetStab Mouse Liver S9 t1/2
Protocol: as §1, §2, §3

[3] = Caco-2 cell permeability; format: in vitro ADME; details: human, pH 7.4, Caco-2 monolayer, apical to basolateral
Protocol: (§4) The next step was an in vitro ADMET profiling of the best seven compounds so far: 9, 11, 14, 19, 20, 21, and 27. The compounds were tested for their kinetic solubility (1% DMSO in PBS, pH 7.4), lipophilicity (chromatographic Log D7.4 value), cellular permeability (using Caco-2 cells), and metabolic stability (using mouse and human liver S9 fractions) (see Table 3).
MTT Assay: Viability of HEK293 cells ~48 hours after treatment […]
Fig S4: MTT assay for compounds 11, 14, 19, 20 and 21 using HEK293 cells. Values are means of […]
Permeability of the compounds was assessed using Caco2 monolayers grown on Transwell® (3460 Costar, Corning). In brief, cells were seeded 60.000 cells/well in 12-well Transwell plates in DMEM medium supplemented with 10% FCS and 1% NEAA. Cells were grown for 7 to 9 days with medium replacement every other day until they reached a tight monolayer. Tightness was defined as transepithelial resistance (TEER) values >300 Ω/cm² (measured using an EVOM Volt-Ohmmeter, World Precision Instruments). At the day of permeability as say, the compound stock solutions in DMSO were diluted to 10µM in Krebs -Ringer-buffer (KRB, pH 7.4). Cells treated with KRB only served as control. Monolayer was washed two times with prewarmed KRB and incubated with 500 µl sample on the apical compartment. Samples from the basolateral side were drawn at t = 0, 15, 30, 60, 120, 180 and 300 min and replaced with fresh buffer. The plates were incubated for 5 h in a cell culture incubator with lateral shaking (200 rpm). TEER values were measured again at the end of the permeability test. Compound concentration was determined with HPLC-ESI-MS/MS in SRM mode and calculated for the cumulative transport. Values are means of three replicates.

[4] = target: LANA–DNA interaction (oligomerization-deficient LANA DBD aa 1008–1146 mutant / LBS1) (Human herpesvirus 8 (Kaposi's sarcoma-associated herpesvirus), UniProt Q76SB0); assay: Electrophoretic mobility shift assay (EMSA), LANA DBD mutant with LBS1 oligonucleotide; format: biochemical, Kaposi's sarcoma-associated herpesvirus (KSHV); details: compound at 250 μM; LBS1 oligonucleotide; LANA aa 1008–1146 mutant
Protocol: (§5) In these assays, an oligomerization-deficient mutant of a LANA C-terminal protein fragment (aa 1008–1146) and an oligonucleotide representing LANA-binding site (LBS) 1 were used, which are convenient to use and handle for the described biophysical methods, while maintaining the essential DNA-binding interface.[25]
Equation y = A2 + (A1-A2)/(1 + (x/x0)^p) […]
1.4 Electrophoretic Mobility Shift Assay (EMSA)
The EMSA was carried out with slight modific ations as described previously 2 based on the assay in Hellert et al. (2013). 3 His-tagged oligomerization-deficient LANA DBD (aa1008-1146) mutant protein or LANA DBD (aa934-1162) wild type protein (200 nM final) was incubated with a 5´-Dy682-labeled double stranded DNA probe (IBA Lifesciences) (20 nM final) for 30 minutes at RT in the dark. The reaction buffer consisted of 30 mM Tris HCl pH 7.5, 50 mM KCl, 10 mM MgCl2, 1 mM DTT, 1 mM EDTA, 10% glycerol, 0.25% Tween20, 0.5 mg/mL BSA and 0.05 mg/mL poly(dI-dC). […]
dark. 10 µL of the reaction was run on a pre -run native 5% acrylamide gel for 45 minutes at 100V with tris-borate-EDTA buffer. Images of the gels were acquired and analysed with the Odyssey (Licor) using the Image Studio software.
Fig S2: Gels of EMSA experiments at 250 μM for all compounds (A) and dose-dependent curves for compound 20 using LANA DBD mutant (B) and LANA wildtype (C) as well as LBS1. Values are means […]
Gleichung y = A2 + (A1-A2)/(1 + (x/x0)^p) […]

[5] = Chromatographic LogD7.4; format: physicochemical; details: reversed-phase HPLC, NUCLEODUR C18 Pyramid column; pH 7.4, HPLC-MS based; read-out: Chrom. LogD7.4
Protocol: as §1
LogD7.4 was analyzed using an HPLC−MS based method. The retention time of 12 compounds with known LogD7.4 was determined and plotted toward their LogD7.4. Linear regression was used to determine the LogD7.4 of unknown compounds. Analysis was performed using a Dionex Ultimate 3000 HPLC system coupled to a TSQ Quantum Access MAX (Thermo Fisher, Dreieich, Germany) with the following conditions: EC150/2 NUCLEODUR C18 Pyramid column, 5 μM (Macherey Nagel, Düren, Germany); eluent A: 50 mM NH4OAc pH 7.4, eluent B: acetonitrile, and flow: 0.6 mL/min. The gradient was set to 0−100% B from 0 to 2.5 min, […]
are means of two replicates. […]

[6] = target: T1, oligomerization-deficient mutant of a LANA C-terminal protein fragment (aa 1008–1146) (Human herpesvirus 8 (Kaposi's sarcoma-associated herpesvirus), UniProt Q76SB0); assay: Microscale thermophoresis (MST) binding assay; parameters: species or system Kaposi's sarcoma-associated herpesvirus (KSHV); details: read-out: KD value (MST); LANA aa 1008–1146 mutant; means of at least three replicates
T1 sequence (Q76SB0 1008-1146): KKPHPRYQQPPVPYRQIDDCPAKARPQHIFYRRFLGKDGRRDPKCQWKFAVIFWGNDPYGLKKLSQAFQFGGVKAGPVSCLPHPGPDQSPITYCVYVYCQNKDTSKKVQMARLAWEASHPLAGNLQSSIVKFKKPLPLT
Source text: as §5
Equation y = A2 + (A1-A2)/(1 + (x/x0)^p)
1.3 Microscale Thermophoresis (MST) Assay
Microscale Thermophoresis Assay was done as mentioned in a previous publication. 2

[7] = Kinetic solubility; format: physicochemical; details: PBS with 1% DMSO; 1% DMSO in PBS, pH 7.4
Protocol: as §4
The desired compounds were sequentially diluted in DMSO in a 96-well plate. 1.5 µL of each well were transferred into another 96-well plate and mixed with 148.5 µL of PBS. Plates were shaken for 5 min at 600 rpm at room temperature (r.t.), and the absorbance at 620 nm was measured. Absorbance values were normalized by blank subtraction and plotted using GraphPad Prism 8.4.2 (GraphPad Software, San Diego, CA, USA). Solubility (S) was determined based on the First X value of AUC function using a threshold of 0.005. […]

[8] = target: LANA; parameters: method as in PMID 30888817; details: cited from earlier work

Row | SMILES | microsomal CLint at 1 µM [1] [µL/min/mg] | half-life at 1 µM [1] [h] | microsomal CLint at 1 µM [2] [µL/min/mg] | half-life at 1 µM [2] [h] | Papp A→B at 5 h, 10 µM [3] [×10⁻⁶ cm/s] | Inhibition (EMSA, LBS1) @250 μM [4] [%] | chromatographic logD [5] | Kd [6] [µM] | solubility kinetic at 5 min [7] [µM] | Kd [8] [µM]
1 | COc1ncc(C)cc1-c1cc(C)c(-n2cc(-c3ccc(C(=O)O)cc3)nn2)cn1 [Compound 11] | < 5.8 | > 2 | < 5.8 | > 2 | 9.6 ± 1.4 | 96 | 0.42 | 18.8 ± 2.1 | > 200 | 
2 | Cc1cc(-c2ccccc2Cl)ncc1-n1cc(-c2ccc(C(=O)O)cc2)nn1 [Compound 14] | < 5.8 | > 2 | < 5.8 | > 2 | 14.2 ± 1.8 | 92 | 0.67 | 4.2 ± 0.6 | > 200 | 
3 | COc1ccc(-c2cc(C)c(-n3cc(-c4ccc(C(=O)O)cc4)nn3)cn2)cc1 [Compound 19] | < 5.8 | > 2 | < 5.8 | > 2 | 16.5 ± 4.7 | 69 | 0.46 | 5.4 ± 1.8 | > 200 | 
4 | Cc1cc(-c2ccccc2O)ncc1-n1cc(-c2ccc(C(=O)O)cc2)nn1 [Compound 21] | < 5.8 | > 2 | < 5.8 | > 2 | 8.8 ± 1.1 | 94 | 0.62 | 18.8 ± 2.2 | 137 ± 20 (≈ 51 µg/mL) | 
5 | Cc1cc(-c2ccc(C(=O)O)cc2)ncc1-n1cc(-c2ccc(C(=O)O)cc2)nn1 [Compound 27] | < 5.8 | > 2 | < 5.8 | > 2 | 0.5 ± 0.2 | 98 | -1.92 | 11.4 ± 3.6 | > 200 | 
6 | O=C(O)c1ccc(-c2cn(-c3cccnc3)nn2)cc1 [hit I] |  |  |  |  |  |  |  |  |  | 23

From paper PMC10424179, “Disrupting Kaposi’s Sarcoma-Associated Herpesvirus (KSHV) Latent Replication with a Small Molecule Inhibitor” (Journal of Medicinal Chemistry, 2023)
